In the supplement of paper PMC10307832:

Tests used:
Experiment in all cases: relative viability (nuclei count vs DMSO), 5 days (fraction); higher = more cells survive
[1] = compound: COc1cc2ncn(-c3cc(OCc4ccccc4C(F)(F)F)c(C(N)=O)s3)c2cc1OC + Cc1cc(Nc2cc(N3CCN(C)CC3)nc(Sc3ccc(NC(=O)C4CC4)cc3)n2)n[nH]1 [Tozasertib] (partner 0.1 µM)
Method in brief: (§1)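 Nuclei were stained with Hoechst during a one-step fixation (final 0.05% Triton X-100, 1% formaldehyde, 1 ug/ml Hoechst) carried out 5 days after dosing, then counted on 4× images. The cells, lung cancer lines in 1536-well plates, had been dosed by pin tool the day after seeding with one drug alone or a fixed anchor-drug dose plus five library-drug doses (not always all listed) in √10 steps. Relative viability is the nuclei count in treated wells divided by that in vehicle wells, and each value is the median of duplicate plates.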

[2] = compound: COc1cc2ncn(-c3cc(OCc4ccccc4C(F)(F)F)c(C(N)=O)s3)c2cc1OC + Cc1nc(Nc2ncc(C(=O)Nc3c(C)cccc3Cl)s2)cc(N2CCN(CCO)CC2)n1 [Dasatinib] (partner 0.075 µM)
Method in brief: as §1

[3] = compound: COc1cc2ncn(-c3cc(OCc4ccccc4C(F)(F)F)c(C(N)=O)s3)c2cc1OC + CCNC(=O)c1noc(-c2cc(C(C)C)c(O)cc2O)c1-c1ccc(CN2CCOCC2)cc1 [Luminespib] (partner 0.01 µM)
Method in brief: as §1

[4] = compound: COc1cc2ncn(-c3cc(OCc4ccccc4C(F)(F)F)c(C(N)=O)s3)c2cc1OC + N=C(N)NC(=N)NCCc1ccccc1 [Phenformin] (partner 250 µM)
Method in brief: as §1

[5] = compound: COc1cc2ncn(-c3cc(OCc4ccccc4C(F)(F)F)c(C(N)=O)s3)c2cc1OC + COc1cccc2cc(-c3nc([C@H]4CC[C@H](C(=O)O)CC4)n4ncnc(N)c34)[nH]c12 [OSI-027] (partner 0.5 µM)
Method in brief: as §1

[6] = compound: COc1cc2ncn(-c3cc(OCc4ccccc4C(F)(F)F)c(C(N)=O)s3)c2cc1OC + COc1cc2c(Oc3ccc(NC(=O)C4(C(=O)Nc5ccc(F)cc5)CC4)cc3F)ccnc2cc1OCCCN1CCOCC1 [Foretinib] (partner 0.25 µM)
Method in brief: as §1

[7] = compound: COc1cc2ncn(-c3cc(OCc4ccccc4C(F)(F)F)c(C(N)=O)s3)c2cc1OC
Method in brief: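 Five library-drug doses spaced by √10 were pinned onto vehicle-anchored 1536-well plates of lung cancer cell lines that had been kept overnight at 37 °C. Cells went 5 days without medium change, then were fixed, permeabilised and Hoechst-stained together, imaged at 4× and counted by MetaXpress. Viability is the ratio of treated-well to vehicle-well nuclei, taken as a median over plates. Plates required control CV below 25% and at least one doubling.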

[8] = compound: COc1cc2ncn(-c3cc(OCc4ccccc4C(F)(F)F)c(C(N)=O)s3)c2cc1OC + O=C(CCCCCCC(=O)Nc1ccccc1)NO [Vorinostat] (partner 1 µM)
Method in brief: as §1

[9] = compound: COc1cc2ncn(-c3cc(OCc4ccccc4C(F)(F)F)c(C(N)=O)s3)c2cc1OC + Nc1nc2[nH]cc(CCc3ccc(C(=O)N[C@@H](CCC(=O)O)C(=O)O)cc3)c2c(=O)[nH]1 [Pemetrexed] (partner 0.2 µM)
Method in brief: as §1

[10] = compound: COc1cc2ncn(-c3cc(OCc4ccccc4C(F)(F)F)c(C(N)=O)s3)c2cc1OC + NC(=O)Nc1cc(-c2cccc(F)c2)sc1C(=O)N[C@H]1CCCNC1 [AZD7762] (partner 0.2 µM)
Method in brief: as §1

[11] = compound: COc1cc2ncn(-c3cc(OCc4ccccc4C(F)(F)F)c(C(N)=O)s3)c2cc1OC + CC(=O)Nc1cccc(-n2c(=O)n(C3CC3)c(=O)c3c(Nc4ccc(I)cc4F)n(C)c(=O)c(C)c32)c1 [Trametinib] (partner 0.02 µM)
Method in brief: as §1

[12] = compound: COc1cc2ncn(-c3cc(OCc4ccccc4C(F)(F)F)c(C(N)=O)s3)c2cc1OC + Nc1ncn([C@H]2C[C@H](O)[C@@H](CO)O2)c(=O)n1 [Decitabine] (partner 2 µM)
Method in brief: as §1

[13] = compound: COc1cc2ncn(-c3cc(OCc4ccccc4C(F)(F)F)c(C(N)=O)s3)c2cc1OC + O=C(c1cc(Cc2n[nH]c(=O)c3ccccc23)ccc1F)N1CCN(C(=O)C2CC2)CC1 [Olaparib] (partner 8 µM)
Method in brief: as §1

[14] = compound: COc1cc2ncn(-c3cc(OCc4ccccc4C(F)(F)F)c(C(N)=O)s3)c2cc1OC + CC(=O)c1c(C)c2cnc(Nc3ccc(N4CCNCC4)cn3)nc2n(C2CCCC2)c1=O [Palbociclib] (partner 0.5 µM)
Method in brief: as §1

NCI-H1623 was tested, and the relative viability ([1]; first compound 0.05 µM) was 0.438, the relative viability ([1]; first compound 0.1581 µM) was 0.382 and the relative viability ([1]; first compound 0.5 µM) was 0.386. The relative viability ([1]; first compound 5 µM) was 0.399, the relative viability ([2]; first compound 0.05 µM) was 0.525 and the relative viability ([2]; first compound 0.1581 µM) was 0.447. It also gave a relative viability ([2]; first compound 0.5 µM) of 0.508, a relative viability ([2]; first compound 5 µM) of 0.557 and a relative viability ([3]; first compound 0.05 µM) of 0.49. For the same cell line, the relative viability ([3]; first compound 0.1581 µM) was 0.485, the relative viability ([3]; first compound 0.5 µM) was 0.435 and the relative viability ([3]; first compound 5 µM) was 0.37. The relative viability ([4]; first compound 0.05 µM) was 0.588, the relative viability ([4]; first compound 0.1581 µM) was 0.395 and the relative viability ([4]; first compound 0.5 µM) was 0.463. The relative viability ([4]; first compound 5 µM) was 0.576, the relative viability ([5]; first compound 0.05 µM) was 0.478 and the relative viability ([5]; first compound 0.1581 µM) was 0.429. The relative viability ([5]; first compound 0.5 µM) was 0.376, the relative viability ([5]; first compound 1.581 µM) was 0.281 and the relative viability ([5]; first compound 5 µM) was 0.349. It also gave a relative viability ([6]; first compound 0.05 µM) of 0.824, a relative viability ([6]; first compound 0.1581 µM) of 0.723 and a relative viability ([6]; first compound 0.5 µM) of 0.62. For the same cell line, the relative viability ([6]; first compound 1.581 µM) was 0.426, the relative viability ([6]; first compound 5 µM) was 0.694 and the relative viability ([7]; 0.05 µM) was 0.962. It also gave a relative viability ([7]; 0.1581 µM) of 0.975, a relative viability ([7]; 0.5 µM) of 0.694 and a relative viability ([7]; 1.581 µM) of 0.439. The relative viability ([7]; 5 µM) was 0.758.
With NCI-H2342 the relative viability ([8]; first compound 0.05 µM) was 0.917, the relative viability ([8]; first compound 0.1581 µM) was 0.744 and the relative viability ([8]; first compound 0.5 µM) was 0.595. It also gave a relative viability ([8]; first compound 1.581 µM) of 0.693, a relative viability ([8]; first compound 5 µM) of 0.527 and a relative viability ([1]; first compound 0.05 µM) of 0.611. For the same cell line, the relative viability ([1]; first compound 0.1581 µM) was 0.54, the relative viability ([1]; first compound 0.5 µM) was 0.333 and the relative viability ([1]; first compound 1.581 µM) was 0.334. The relative viability ([1]; first compound 5 µM) was 0.337, the relative viability ([9]; first compound 0.05 µM) was 0.773 and the relative viability ([9]; first compound 0.1581 µM) was 0.782. For the same cell line, the relative viability ([9]; first compound 0.5 µM) was 0.56, the relative viability ([9]; first compound 1.581 µM) was 0.518 and the relative viability ([9]; first compound 5 µM) was 0.655. The relative viability ([10]; first compound 0.05 µM) was 0.593, the relative viability ([10]; first compound 0.1581 µM) was 0.476 and the relative viability ([10]; first compound 0.5 µM) was 0.374. For the same cell line, the relative viability ([10]; first compound 1.581 µM) was 0.38, the relative viability ([10]; first compound 5 µM) was 0.425 and the relative viability ([11]; first compound 0.05 µM) was 0.794. The relative viability ([11]; first compound 0.1581 µM) was 0.757, the relative viability ([11]; first compound 0.5 µM) was 0.696 and the relative viability ([11]; first compound 1.581 µM) was 0.607. The relative viability ([11]; first compound 5 µM) was 0.598, the relative viability ([12]; first compound 0.05 µM) was 0.628 and the relative viability ([12]; first compound 0.1581 µM) was 0.701. It also gave a relative viability ([12]; first compound 0.5 µM) of 0.626, a relative viability ([12]; first compound 1.581 µM) of 0.569 and a relative viability ([12]; first compound 5 µM) of 0.528. It also gave a relative viability ([2]; first compound 0.05 µM) of 0.325, a relative viability ([2]; first compound 0.1581 µM) of 0.354 and a relative viability ([2]; first compound 0.5 µM) of 0.279. It also gave a relative viability ([2]; first compound 1.581 µM) of 0.278, a relative viability ([2]; first compound 5 µM) of 0.237 and a relative viability ([3]; first compound 0.05 µM) of 0.757. For the same cell line, the relative viability ([3]; first compound 0.1581 µM) was 0.752, the relative viability ([3]; first compound 0.5 µM) was 0.715 and the relative viability ([3]; first compound 1.581 µM) was 0.597. It also gave a relative viability ([3]; first compound 5 µM) of 0.545, a relative viability ([4]; first compound 0.05 µM) of 0.631 and a relative viability ([4]; first compound 0.1581 µM) of 0.652. The relative viability ([4]; first compound 0.5 µM) was 0.457, the relative viability ([4]; first compound 1.581 µM) was 0.379 and the relative viability ([4]; first compound 5 µM) was 0.299. It also gave a relative viability ([13]; first compound 0.05 µM) of 0.389, a relative viability ([13]; first compound 0.1581 µM) of 0.437 and a relative viability ([13]; first compound 0.5 µM) of 0.407. It also gave a relative viability ([13]; first compound 1.581 µM) of 0.388, a relative viability ([13]; first compound 5 µM) of 0.421 and a relative viability ([5]; first compound 0.05 µM) of 0.614. For the same cell line, the relative viability ([5]; first compound 0.1581 µM) was 0.579, the relative viability ([5]; first compound 0.5 µM) was 0.56 and the relative viability ([5]; first compound 1.581 µM) was 0.416. It also gave a relative viability ([5]; first compound 5 µM) of 0.375, a relative viability ([14]; first compound 0.05 µM) of 0.519 and a relative viability ([14]; first compound 0.1581 µM) of 0.509. It also gave a relative viability ([14]; first compound 0.5 µM) of 0.513, a relative viability ([14]; first compound 1.581 µM) of 0.437 and a relative viability ([14]; first compound 5 µM) of 0.422. For the same cell line, the relative viability ([6]; first compound 0.05 µM) was 1.13, the relative viability ([6]; first compound 0.1581 µM) was 0.951 and the relative viability ([6]; first compound 0.5 µM) was 0.876. It also gave a relative viability ([6]; first compound 1.581 µM) of 0.475, a relative viability ([6]; first compound 5 µM) of 0.567 and a relative viability ([7]; 0.05 µM) of 1.09. For the same cell line, the relative viability ([7]; 0.1581 µM) was 1, the relative viability ([7]; 0.5 µM) was 0.855 and the relative viability ([7]; 1.581 µM) was 0.623. It also gave a relative viability ([7]; 5 µM) of 0.466.
